Test results as given in ChEMBL document CHEMBL5247654 (J Med Chem, 2023).
Calls of active or inactive are those of the source. No cut-off for these calls is given here.

Tests used:
[1] = molecular target: T1, Glycogen synthase kinase-3 beta (Homo sapiens, UniProt P49841); test: Stabilization of human C-terminal his tagged GSK3beta (26 to 383 residues) expressed in Escherichia coli assessed as change in melting temperature at 10 uM by SYPRO orange dye based thermal shift assay
Target sequence in this assay (P49841 whole entry, looked up, the tested form may be a part): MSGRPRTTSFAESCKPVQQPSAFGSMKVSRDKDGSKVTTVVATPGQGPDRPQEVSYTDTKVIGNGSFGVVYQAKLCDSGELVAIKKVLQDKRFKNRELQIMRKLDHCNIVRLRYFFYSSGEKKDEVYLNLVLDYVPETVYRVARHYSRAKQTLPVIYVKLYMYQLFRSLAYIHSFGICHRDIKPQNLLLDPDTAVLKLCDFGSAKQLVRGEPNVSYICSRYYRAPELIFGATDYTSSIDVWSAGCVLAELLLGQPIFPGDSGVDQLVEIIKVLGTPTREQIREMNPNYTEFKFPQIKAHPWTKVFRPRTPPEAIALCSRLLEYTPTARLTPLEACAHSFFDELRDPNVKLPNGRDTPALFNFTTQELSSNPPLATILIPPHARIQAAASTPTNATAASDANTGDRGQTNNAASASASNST

[2] = molecular target: T1, Glycogen synthase kinase-3 beta; test: Inhibition of human C-terminal his tagged GSK3beta (26 to 383 residues) transfected in HEK293T cells assessed as inhibition of cyclin D1 phosphorylation at 10 uM incubated for 3 hrs by Western blot analysis; format: cell-based
Target sequence in this assay (P49841 whole entry, looked up, the tested form may be a part): as above

[3] = molecular target: T2, Dual specificity tyrosine-phosphorylation-regulated kinase 1A (Homo sapiens, UniProt Q13627); test: Inhibition of human C-terminal his tagged DYRK1A (26 to 490 residues) transfected in HEK293T cells assessed as inhibition of cyclin D1 phosphorylation at 10 uM incubated for 3 hrs by Western blot analysis; format: cell-based
[4] = molecular target: T1, Glycogen synthase kinase-3 beta; test: Inhibition of human C-terminal his tagged GSK3beta (26 to 383 residues) expressed in Escherichia coli using GYSI(YRRAAVPPSPSLSRHSSPHQ(pS)EDEEE) as peptide substrate incubated for 1 hr in presence of ATP by cook activity assay
Target sequence in this assay (P49841 whole entry, the tested form may be a part): as the sequence (P49841 whole entry, looked up, the tested form may be a part) above

[5] = molecular target: T2, Dual specificity tyrosine-phosphorylation-regulated kinase 1A; test: Inhibition of human C-terminal his tagged DYRK1A (26 to 490 residues) expressed in Escherichia coli using DYRKtide (RRRFRPASPLRGPPK) as peptide substrate incubated for 1 hr in presence of ATP by cook activity assay
[6] = molecular target: T1, Glycogen synthase kinase-3 beta; test: Inhibition human C-terminal his tagged m-Cherry GSK3beta (26 to 383 residues) in HEK293T cells assessed as reversal of ionomycin stimulated NFAT cellular localization at 5 uM incubated for 3 hrs followed by ionomycin stimulation for 1 hr by Hoechst 33258 staining based fluorescence microscopic analysis; format: cell-based; conditions: time 4.0 hrs
Target sequence in this assay (P49841 whole entry, looked up, the tested form may be a part): as the sequence (P49841 whole entry, looked up, the tested form may be a part) above

[7] = molecular target: T2, Dual specificity tyrosine-phosphorylation-regulated kinase 1A; test: Binding affinity to human C-terminal his tagged DYRK1A (26 to 490 residues) expressed in Escherichia coli at 100 uM by radiometric analysis
[8] = molecular target: T1, Glycogen synthase kinase-3 beta; conditions: dose 500.0 nM
Target sequence in this assay (P49841 whole entry, looked up, the tested form may be a part): as the sequence (P49841 whole entry, looked up, the tested form may be a part) above

SMILES | Tm [1] | inhibition [2] | inhibition [3] | IC50 [4] | IC50 [5] | inhibition [6] | Activity [7] | inhibition [8] [%]
COc1ccc2c(c1)[nH]c1c(C)nccc12 [HARMINE] | inactive | Active | Active | Not Active |  |  |  | 
O=C1Cc2c([nH]c3ccc(Br)cc23)-c2ncccc2N1 [AZAKENPAULLONE] |  | Active | Active |  | Not Active | Active | inactive | 
O=C(O)c1ccc2c(c1)nc(Nc1cccc(Cl)c1)c1ccncc12 |  | 100% | 100% |  |  | Active |  | 50
